Laboratory results published in article PMC9683047, “Design, synthesis and biological evaluation of 4-aminoquinoline derivatives as receptor-interacting protein kinase 2 (RIPK2) inhibitors” (Journal of Enzyme Inhibition and Medicinal Chemistry, 2022).

How the values were obtained:
SRPK1(h) = target: T1, SRPK1(h) (Homo sapiens, UniProt Q96SB4); assay: Kinase selectivity panel: SRPK1; format: biochemical; design: unit not given here
T1 construct: purchased Eurofins (Millipore) KinaseProfiler Diversity Panel
Protocol: (§1) To confirm the anti-inflammatory effect was caused by RIPK2 inhibition, compound 14 was subjected to kinase selectivity evaluation (Figure 4). Kinase selectivity profile of compound 14 as shown by the diversity kinase Panel screen against 70 kinases assayed at 1 µM. Among all tested 70 kinases, only five were inhibited over 90% at 1 µM including Fyn, Lyn, BTK, Abl and RIPK2. Three kinases including KDR, CDK9 and LOK were inhibited 50–90% at 1 µM.

[1] = target: T2, PI3 Kinase (p110a/p85a)(h) (Homo sapiens, UniProt P42336); assay: Kinase selectivity panel: PI3 Kinase (p110a/p85a); format: biochemical; conditions: 1 µM
T2 construct: purchased Eurofins (Millipore) KinaseProfiler Diversity Panel
Protocol: as §1

CDK2/cyclinA(h) = target: T3, CDK2/cyclinA(h) (Homo sapiens, UniProt P24941); assay: Kinase selectivity panel: CDK2/cyclinA; format: biochemical
T3 construct: purchased Eurofins (Millipore) KinaseProfiler Diversity Panel
Protocol: as §1

JAK2(h) = target: T4, JAK2(h) (Homo sapiens, UniProt O60674); assay: Kinase selectivity panel: JAK2; format: biochemical; conditions: 1 µM
T4 construct: purchased Eurofins (Millipore) KinaseProfiler Diversity Panel
Protocol: as §1

EphA5(h) = target: T5, EphA5(h) (Homo sapiens, UniProt P54756); assay: Kinase selectivity panel: EphA5; format: biochemical; conditions: 1 µM
T5 construct: purchased Eurofins (Millipore) KinaseProfiler Diversity Panel
Protocol: as §1

EphB4(h) = target: T6, EphB4(h) (Homo sapiens, UniProt P54760); assay: Kinase selectivity panel: EphB4; format: biochemical
T6 construct: purchased Eurofins (Millipore) KinaseProfiler Diversity Panel
Protocol: as §1

CaMKI(h) = target: T7, CaMKI(h) (Homo sapiens, UniProt Q14012); assay: Kinase selectivity panel: CaMKI; format: biochemical; conditions: 1 µM
T7 construct: purchased Eurofins (Millipore) KinaseProfiler Diversity Panel
Protocol: as §1

TAK1(h) = target: T8, TAK1(h) (Homo sapiens, UniProt O43318); assay: Kinase selectivity panel: TAK1; format: biochemical; conditions: 1 µM
T8 construct: purchased Eurofins (Millipore) KinaseProfiler Diversity Panel
Protocol: as §1

MEK1(h) = target: T9, MEK1(h) (Homo sapiens, UniProt Q02750); assay: Kinase selectivity panel: MEK1; format: biochemical; conditions: 1 µM
T9 construct: purchased Eurofins (Millipore) KinaseProfiler Diversity Panel
Protocol: as §1

IGF-1R(h) = target: T10, IGF-1R(h) (Homo sapiens, UniProt P08069); assay: Kinase selectivity panel: IGF-1R; format: biochemical; conditions: 1 µM
T10 construct: purchased Eurofins (Millipore) KinaseProfiler Diversity Panel
Protocol: as §1

BTK(h) = target: T11, BTK(h) (Homo sapiens, UniProt Q06187); assay: Kinase selectivity panel: BTK; format: biochemical
T11 construct: purchased Eurofins (Millipore) KinaseProfiler Diversity Panel
Protocol: as §1

Rse(h) = target: T12, Rse(h) (Homo sapiens, UniProt Q06418); assay: Kinase selectivity panel: Rse; format: biochemical; conditions: 1 µM
T12 construct: purchased Eurofins (Millipore) KinaseProfiler Diversity Panel
Protocol: as §1

Syk(h) = target: T13, Syk(h) (Homo sapiens, UniProt P43405); assay: Kinase selectivity panel: Syk; format: biochemical
T13 construct: purchased Eurofins (Millipore) KinaseProfiler Diversity Panel
Protocol: as §1

TYK2(h) = target: T14, TYK2(h) (Homo sapiens, UniProt P29597); assay: Kinase selectivity panel: TYK2; format: biochemical; conditions: 1 µM
T14 construct: purchased Eurofins (Millipore) KinaseProfiler Diversity Panel
Protocol: as §1

p70S6K(h) = target: T15, p70S6K(h) (Homo sapiens, UniProt P23443); assay: Kinase selectivity panel: p70S6K; format: biochemical
T15 construct: purchased Eurofins (Millipore) KinaseProfiler Diversity Panel
Protocol: as §1

AO oxidase = target: T16, AO oxidase (Homo sapiens, UniProt Q06278); assay: AO oxidative metabolism in human liver cytosol; format: in vitro ADME; conditions: human liver cytosol incubation; inhibitors raloxifene and menadione
T16 construct: could undergo mono oxidative metabolism in the human liver cytosol incubation system; from tissue; host or cells: human liver cytosol
Protocol: However, we have done experiment on AO oxidative metabolism of compound 14 and P5. Both compound 14 and P5 could undergo mono oxidative metabolism in the human liver cytosol incubation system.

KDR(h) = target: T17, KDR(h) (Homo sapiens, UniProt P35968); assay: Kinase selectivity panel: KDR; format: biochemical; design: KDR(h), 14 @ 1 µM: unit not given here
T17 construct: purchased Eurofins (Millipore) KinaseProfiler Diversity Panel
Protocol: as §1

PKA(h) = target: T18, PKA(h) (Homo sapiens, UniProt P17612); assay: Kinase selectivity panel: PKA; format: biochemical; conditions: 1 µM
T18 construct: purchased Eurofins (Millipore) KinaseProfiler Diversity Panel
Protocol: as §1

CK1γ1(h) = target: T19, CK1γ1(h) (Homo sapiens, UniProt Q9HCP0); assay: Kinase selectivity panel: CK1γ1; format: biochemical; conditions: 1 µM
T19 construct: purchased Eurofins (Millipore) KinaseProfiler Diversity Panel
Protocol: as §1

PKG1α(h) = target: T20, PKG1α(h) (Homo sapiens, UniProt Q13976); assay: Kinase selectivity panel: PKG1α; format: biochemical
T20 construct: purchased Eurofins (Millipore) KinaseProfiler Diversity Panel
Protocol: as §1

NEK2(h) = target: T21, NEK2(h) (Homo sapiens, UniProt P51955); assay: Kinase selectivity panel: NEK2; format: biochemical; conditions: 1 µM
T21 construct: purchased Eurofins (Millipore) KinaseProfiler Diversity Panel
Protocol: as §1

CDK7/cyclinH/MAT1(h) = target: T22, CDK7/cyclinH/MAT1(h) (Homo sapiens, UniProt P50613); assay: Kinase selectivity panel: CDK7/cyclinH/MAT1; format: biochemical
T22 construct: purchased Eurofins (Millipore) KinaseProfiler Diversity Panel
Protocol: as §1

MAPKAP-K2(h) = target: T23, MAPKAP-K2(h) (Homo sapiens, UniProt P49137); assay: Kinase selectivity panel: MAPKAP-K2; format: biochemical; conditions: 1 µM
T23 construct: purchased Eurofins (Millipore) KinaseProfiler Diversity Panel
Protocol: as §1

eEF-2K(h) = target: T24, eEF-2K(h) (Homo sapiens, UniProt O00418); assay: Kinase selectivity panel: eEF-2K; format: biochemical
T24 construct: purchased Eurofins (Millipore) KinaseProfiler Diversity Panel
Protocol: as §1

IRAK1(h) = target: T25, IRAK1(h) (Homo sapiens, UniProt P51617); assay: Kinase selectivity panel: IRAK1; format: biochemical
T25 construct: purchased Eurofins (Millipore) KinaseProfiler Diversity Panel
Protocol: as §1

BTK(R28H)(h) = target: T26, BTK(R28H)(h) (Homo sapiens, UniProt Q06187, R28H); assay: Kinase selectivity panel: BTK(R28H); format: biochemical; conditions: 1 µM
T26 construct: purchased Eurofins (Millipore) KinaseProfiler Diversity Panel
Protocol: as §1

Abl(h) = target: T27, Abl(h) (Homo sapiens, UniProt P00519); assay: Kinase selectivity panel: Abl; format: biochemical
T27 construct: purchased Eurofins (Millipore) KinaseProfiler Diversity Panel
Protocol: as §1

IKKε(h) = target: T28, IKKε(h) (Homo sapiens, UniProt Q14164); assay: Kinase selectivity panel: IKKε; format: biochemical
T28 construct: purchased Eurofins (Millipore) KinaseProfiler Diversity Panel
Protocol: as §1

PKCα(h) = target: T29, PKCα(h) (Homo sapiens, UniProt P17252); assay: Kinase selectivity panel: PKCα; format: biochemical; conditions: 1 µM
T29 construct: purchased Eurofins (Millipore) KinaseProfiler Diversity Panel
Protocol: as §1

RIPK2 [2] = target: T30, RIPK2 (Homo sapiens, UniProt O43353); assay: Lipophilic ligand efficiency (LipE); conditions: LipE = pIC50 − ClogP
T30 construct: purchased Promega

ASK1(h) = target: T31, ASK1(h) (Homo sapiens, UniProt Q99683); assay: Kinase selectivity panel: ASK1; format: biochemical
T31 construct: purchased Eurofins (Millipore) KinaseProfiler Diversity Panel
Protocol: as §1

RIPK2(h) = target: T32, RIPK2(h) (Homo sapiens, UniProt O43353); assay: Kinase selectivity panel: RIPK2; format: biochemical
T32 construct: purchased Eurofins (Millipore) KinaseProfiler Diversity Panel
Protocol: as §1

RIPK2 [3] = target: T30, RIPK2; assay: RIPK2 kinase inhibition assay (ADP-Glo); format: biochemical; conditions: mean ± SD from two separate experiments
Protocol: RIPK2 kinase activity was analysed using the ADP-Glo™ Assay Kit (RIPK2 Kinase Enzyme System, Promega, USA). Reactions were performed according to the instructions. Specific signal was calculated by subtracting values in the wells without protein and inhibitor from the values in the test wells.

Pim-1(h) = target: T33, Pim-1(h) (Homo sapiens, UniProt P11309); assay: Kinase selectivity panel: Pim-1; format: biochemical
T33 construct: purchased Eurofins (Millipore) KinaseProfiler Diversity Panel
Protocol: as §1

c-RAF(h) = target: T34, c-RAF(h) (Homo sapiens, UniProt P04049); assay: Kinase selectivity panel: c-RAF; format: biochemical
T34 construct: purchased Eurofins (Millipore) KinaseProfiler Diversity Panel
Protocol: as §1

PI3 Kinase (p120g)(h) = target: T35, PI3 Kinase (p120g)(h) (Homo sapiens, UniProt P48736); assay: Kinase selectivity panel: PI3 Kinase (p120g); format: biochemical; conditions: 1 µM
T35 construct: purchased Eurofins (Millipore) KinaseProfiler Diversity Panel
Protocol: as §1

T11 sequence (Q06187 whole entry): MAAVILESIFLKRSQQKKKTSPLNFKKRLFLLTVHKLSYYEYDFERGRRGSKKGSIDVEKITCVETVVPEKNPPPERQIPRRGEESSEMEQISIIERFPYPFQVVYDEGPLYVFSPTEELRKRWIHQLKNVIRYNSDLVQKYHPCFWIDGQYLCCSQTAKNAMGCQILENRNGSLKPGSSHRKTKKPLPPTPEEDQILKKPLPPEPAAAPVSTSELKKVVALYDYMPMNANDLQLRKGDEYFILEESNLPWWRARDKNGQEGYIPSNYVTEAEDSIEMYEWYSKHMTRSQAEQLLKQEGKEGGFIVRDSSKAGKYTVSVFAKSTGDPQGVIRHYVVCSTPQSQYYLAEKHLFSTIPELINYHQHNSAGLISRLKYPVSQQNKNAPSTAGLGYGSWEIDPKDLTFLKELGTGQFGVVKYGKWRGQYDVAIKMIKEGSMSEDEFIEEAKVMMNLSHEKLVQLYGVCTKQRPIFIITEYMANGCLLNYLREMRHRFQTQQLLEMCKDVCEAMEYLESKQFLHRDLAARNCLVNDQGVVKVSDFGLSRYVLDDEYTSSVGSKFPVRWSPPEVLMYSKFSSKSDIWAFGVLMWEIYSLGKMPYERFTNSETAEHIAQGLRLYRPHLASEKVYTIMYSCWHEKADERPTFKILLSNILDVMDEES
T27 sequence (P00519 whole entry): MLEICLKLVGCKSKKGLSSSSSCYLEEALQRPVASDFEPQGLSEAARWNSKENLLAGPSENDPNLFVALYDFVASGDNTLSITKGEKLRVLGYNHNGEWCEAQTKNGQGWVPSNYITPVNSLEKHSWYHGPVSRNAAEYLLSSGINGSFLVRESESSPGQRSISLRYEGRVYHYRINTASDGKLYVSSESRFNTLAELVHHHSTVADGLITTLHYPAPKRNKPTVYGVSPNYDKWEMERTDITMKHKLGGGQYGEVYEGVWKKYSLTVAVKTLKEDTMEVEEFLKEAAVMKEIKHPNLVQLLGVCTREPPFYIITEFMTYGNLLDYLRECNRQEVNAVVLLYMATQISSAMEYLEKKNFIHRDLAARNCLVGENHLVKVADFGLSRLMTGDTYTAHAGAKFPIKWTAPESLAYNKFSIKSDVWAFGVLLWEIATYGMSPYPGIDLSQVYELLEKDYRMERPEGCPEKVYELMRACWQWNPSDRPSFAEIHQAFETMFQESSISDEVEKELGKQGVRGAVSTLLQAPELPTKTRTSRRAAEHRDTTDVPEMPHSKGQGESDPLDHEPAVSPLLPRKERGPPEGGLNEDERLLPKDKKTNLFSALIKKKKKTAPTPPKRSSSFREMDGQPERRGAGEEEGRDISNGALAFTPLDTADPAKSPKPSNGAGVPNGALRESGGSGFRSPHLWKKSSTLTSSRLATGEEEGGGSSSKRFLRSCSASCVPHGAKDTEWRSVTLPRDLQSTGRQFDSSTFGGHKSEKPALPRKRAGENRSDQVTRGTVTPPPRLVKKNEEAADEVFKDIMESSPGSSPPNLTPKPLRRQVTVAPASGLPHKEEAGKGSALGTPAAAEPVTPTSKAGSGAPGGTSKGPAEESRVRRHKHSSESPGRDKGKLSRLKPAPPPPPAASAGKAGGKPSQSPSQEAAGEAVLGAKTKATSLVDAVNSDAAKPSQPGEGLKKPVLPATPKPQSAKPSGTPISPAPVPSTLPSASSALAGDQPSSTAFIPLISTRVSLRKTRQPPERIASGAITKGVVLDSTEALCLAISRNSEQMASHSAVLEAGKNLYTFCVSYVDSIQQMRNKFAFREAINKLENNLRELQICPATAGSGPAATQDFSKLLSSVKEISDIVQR
T30 sequence (O43353 whole entry): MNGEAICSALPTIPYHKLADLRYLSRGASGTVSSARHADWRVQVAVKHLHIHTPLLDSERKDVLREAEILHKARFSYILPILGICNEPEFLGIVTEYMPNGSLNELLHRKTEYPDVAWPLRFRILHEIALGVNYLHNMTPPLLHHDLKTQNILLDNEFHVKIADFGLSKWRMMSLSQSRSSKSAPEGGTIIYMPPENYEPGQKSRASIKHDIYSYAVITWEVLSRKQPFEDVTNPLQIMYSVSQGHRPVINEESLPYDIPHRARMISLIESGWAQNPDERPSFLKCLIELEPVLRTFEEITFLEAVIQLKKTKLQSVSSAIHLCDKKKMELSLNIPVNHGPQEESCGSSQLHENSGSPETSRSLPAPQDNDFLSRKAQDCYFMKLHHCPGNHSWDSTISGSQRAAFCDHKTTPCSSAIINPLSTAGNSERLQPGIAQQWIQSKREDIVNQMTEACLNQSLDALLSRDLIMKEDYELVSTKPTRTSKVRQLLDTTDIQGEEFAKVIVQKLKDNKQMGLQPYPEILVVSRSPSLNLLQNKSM
T32 sequence (O43353 whole entry): as above
T17 sequence (P35968 20-1356): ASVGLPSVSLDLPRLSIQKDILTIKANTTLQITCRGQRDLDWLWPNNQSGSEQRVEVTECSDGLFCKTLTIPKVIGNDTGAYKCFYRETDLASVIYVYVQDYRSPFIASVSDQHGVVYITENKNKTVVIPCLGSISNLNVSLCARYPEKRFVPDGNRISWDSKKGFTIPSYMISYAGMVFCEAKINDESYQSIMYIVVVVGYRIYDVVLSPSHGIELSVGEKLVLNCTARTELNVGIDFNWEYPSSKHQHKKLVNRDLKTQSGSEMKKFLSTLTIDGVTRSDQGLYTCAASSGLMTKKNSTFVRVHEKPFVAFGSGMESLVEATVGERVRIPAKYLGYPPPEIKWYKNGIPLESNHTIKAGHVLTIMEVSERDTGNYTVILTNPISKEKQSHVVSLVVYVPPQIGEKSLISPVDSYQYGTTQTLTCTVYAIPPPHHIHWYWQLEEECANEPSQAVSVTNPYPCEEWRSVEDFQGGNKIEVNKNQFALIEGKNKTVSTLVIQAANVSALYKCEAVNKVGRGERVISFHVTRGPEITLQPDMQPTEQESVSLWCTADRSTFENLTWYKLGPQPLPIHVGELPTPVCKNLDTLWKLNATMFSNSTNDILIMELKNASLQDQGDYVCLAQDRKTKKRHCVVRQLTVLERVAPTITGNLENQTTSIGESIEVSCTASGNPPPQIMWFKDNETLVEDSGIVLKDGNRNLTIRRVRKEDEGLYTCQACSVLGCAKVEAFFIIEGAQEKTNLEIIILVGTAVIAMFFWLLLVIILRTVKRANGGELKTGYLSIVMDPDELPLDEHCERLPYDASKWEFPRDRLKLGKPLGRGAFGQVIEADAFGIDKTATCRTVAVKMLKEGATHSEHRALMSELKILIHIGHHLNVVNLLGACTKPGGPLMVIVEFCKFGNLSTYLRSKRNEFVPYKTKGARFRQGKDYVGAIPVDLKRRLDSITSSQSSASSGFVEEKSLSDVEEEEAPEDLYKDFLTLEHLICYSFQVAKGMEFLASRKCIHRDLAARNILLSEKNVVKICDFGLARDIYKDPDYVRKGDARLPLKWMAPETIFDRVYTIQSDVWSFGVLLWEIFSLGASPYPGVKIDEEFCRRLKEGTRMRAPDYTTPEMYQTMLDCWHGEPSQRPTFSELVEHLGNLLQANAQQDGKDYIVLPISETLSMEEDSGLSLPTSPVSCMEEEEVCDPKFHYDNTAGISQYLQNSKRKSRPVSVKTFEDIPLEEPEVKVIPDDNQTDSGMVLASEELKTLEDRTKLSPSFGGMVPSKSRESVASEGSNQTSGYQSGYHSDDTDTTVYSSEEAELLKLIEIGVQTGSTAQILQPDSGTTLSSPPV
T28 sequence (Q14164 whole entry): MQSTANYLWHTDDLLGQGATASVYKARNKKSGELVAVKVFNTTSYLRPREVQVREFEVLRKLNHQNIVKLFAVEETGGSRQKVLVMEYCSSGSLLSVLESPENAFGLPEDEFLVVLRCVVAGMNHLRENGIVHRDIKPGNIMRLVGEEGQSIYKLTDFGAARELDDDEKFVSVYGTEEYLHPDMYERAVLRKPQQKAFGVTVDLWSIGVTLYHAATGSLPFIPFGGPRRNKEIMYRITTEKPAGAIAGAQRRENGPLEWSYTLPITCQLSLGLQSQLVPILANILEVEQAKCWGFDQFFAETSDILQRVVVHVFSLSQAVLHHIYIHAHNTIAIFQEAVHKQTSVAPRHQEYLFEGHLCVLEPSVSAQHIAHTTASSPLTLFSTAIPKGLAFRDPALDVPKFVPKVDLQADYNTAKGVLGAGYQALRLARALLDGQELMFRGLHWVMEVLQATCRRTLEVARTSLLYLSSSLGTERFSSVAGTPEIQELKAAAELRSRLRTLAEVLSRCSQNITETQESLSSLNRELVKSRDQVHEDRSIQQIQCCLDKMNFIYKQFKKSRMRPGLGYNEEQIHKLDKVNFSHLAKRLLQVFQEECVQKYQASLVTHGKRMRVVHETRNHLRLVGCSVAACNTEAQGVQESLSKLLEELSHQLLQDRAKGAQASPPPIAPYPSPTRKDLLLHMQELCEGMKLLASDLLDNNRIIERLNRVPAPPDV
T8 sequence (O43318 1-303 limits assumed): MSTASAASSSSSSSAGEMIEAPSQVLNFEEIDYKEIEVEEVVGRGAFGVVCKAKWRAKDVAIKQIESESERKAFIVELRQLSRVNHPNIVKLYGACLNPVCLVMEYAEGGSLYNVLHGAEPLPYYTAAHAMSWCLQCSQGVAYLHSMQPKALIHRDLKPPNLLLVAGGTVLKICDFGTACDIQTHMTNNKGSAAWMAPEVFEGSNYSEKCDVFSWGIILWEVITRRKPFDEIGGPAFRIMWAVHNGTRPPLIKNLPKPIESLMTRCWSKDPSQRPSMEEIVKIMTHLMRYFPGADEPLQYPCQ
T33 sequence (P11309 whole entry): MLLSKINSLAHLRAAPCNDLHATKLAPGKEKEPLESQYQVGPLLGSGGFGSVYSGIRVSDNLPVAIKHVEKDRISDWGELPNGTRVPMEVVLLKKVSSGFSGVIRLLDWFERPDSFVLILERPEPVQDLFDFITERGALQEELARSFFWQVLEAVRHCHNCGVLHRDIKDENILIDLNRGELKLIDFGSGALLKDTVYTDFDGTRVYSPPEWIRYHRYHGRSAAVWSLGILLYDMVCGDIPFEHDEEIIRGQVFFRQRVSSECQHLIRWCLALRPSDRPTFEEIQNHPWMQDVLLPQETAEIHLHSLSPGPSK

c1cc(-c2ccc3nccc(Nc4ccc5scnc5c4)c3c2)ccn1 [Compound 14, N-(6-(pyridin-4-yl)quinolin-4-yl)benzo[d]thiazol-5-amine]
SRPK1(h), 14 @ 1 µM (SRPK1(h)): 111 | percent remaining kinase activity [1]: 81 | CDK2/cyclinA remaining activity (%) with compound 14 at 1 µM (CDK2/cyclinA(h)): 78 | remaining kinase activity (%) (JAK2(h)): 93 | Remaining kinase activity (% of control) (EphA5(h)): 96 | EphB4 remaining activity (%) with compound 14 at 1 µM (EphB4(h)): 96 | percent kinase activity remaining (CaMKI(h)): 97 | Remaining kinase activity (% of control) (TAK1(h)): 90 | % remaining MEK1 activity (MEK1(h)): 105 | remaining IGF-1R activity (% of control) (IGF-1R(h)): 109 | remaining BTK activity (% of control) (BTK(h); 1 µM): 4 | inhibition at 1 µM (BTK(h); at 1 µM): > 90% | Remaining kinase activity (% of control) (Rse(h)): 121 | % remaining kinase activity with compound 14 at 1 µM (Syk(h)): 94 | kinase activity remaining (% of control) (TYK2(h)): 108 | Remaining kinase activity (% of control) at 1 µM compound 14 (p70S6K(h)): 95 | AO oxidase substrate (AO oxidase): metabolic substrates of AO oxidase | KDR(h), 14 @ 1 µM (KDR(h); 1 µM): 11 | inhibition at 1 µM (KDR(h); at 1 µM): 50 to 90% | Remaining kinase activity (% of control) (PKA(h)): 117 | Remaining kinase activity (% of control) (CK1γ1(h)): 93 | Remaining PKG1α activity (% of control) with compound 14 at 1 µM (PKG1α(h)): 64 | percent remaining NEK2 kinase activity with compound 14 (NEK2(h)): 88 | CDK7/cyclinH/MAT1(h), 14 @ 1 µM (CDK7/cyclinH/MAT1(h)): 83 | percent remaining MAPKAP-K2 activity (MAPKAP-K2(h)): 95 | remaining kinase activity (% of control) with compound 14 at 1 µM (eEF-2K(h)): 102 | IRAK1 remaining activity (% of control) with compound 14 at 1 µM (IRAK1(h)): 91 | percent remaining kinase activity (BTK(R28H)(h)): 63 | Abl remaining activity (% of control) (Abl(h); 1 µM): 9 | inhibition at 1 µM (Abl(h); at 1 µM): > 90% | Remaining IKKε activity at 1 µM (% of control) (IKKε(h)): 106 | % remaining kinase activity (PKCα(h)): 94 | LipE (RIPK2 [2]): 4.40 | ASK1 remaining activity (% of control) with compound 14 at 1 µM (ASK1(h)): 87 | RIPK2 remaining activity (% of control) (RIPK2(h); 1 µM): 3 | inhibition at 1 µM (RIPK2(h); at 1 µM): > 90% | IC50 (RIPK2 [3]): 5.1 ± 1.6 nM | remaining kinase activity (% of control) with compound 14 at 1 µM (Pim-1(h)): 78 | c-RAF remaining activity (% of control) with compound 14 at 1 µM (c-RAF(h)): 65 | Remaining kinase activity (% of control) (PI3 Kinase (p120g)(h)): 79
